What was measured:
[1] = system: cotton; assay: Test C postemergence cotton; type: in vivo, Gossypium hirsutum; details: 0 to 100 scale, 0 no effect, 100 complete control
Outline: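 Visual injury scored 0-100 (100 = complete control) versus untreated plants roughly 14 to 21 days after treatment. Plants were grown to suitable size in 60:40 sandy loam and potting mix, then treated postemergence with surfactant-containing solvent formulations.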

[2] = system: Alexandergrass; assay: Test D Alexandergrass; type: in vivo, Brachiaria plantaginea; details: Preemergence, 0 to 100 scale
Outline: (§1)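 Weed seeds planted in sandy loam; species kept apart in individual pots or compartments. Preemergence tests: treatment to soil surface within one day. Greenhouse growth, then visual injury scoring at 14–21 days (0–100).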

[3] = system: bermuda-grass; assay: Test D bermudagrass; type: in vivo, Cynodon dactylon; details: Preemergence, 0 to 100 scale
Outline: as §1

[4] = system: common pursiane; assay: Test D common purslane; type: in vivo, Portulaca oleracea; details: Preemergence, 0 to 100 scale
Outline: as §1

[5] = system: common ragweed; assay: Test D common ragweed; type: in vivo, Ambrosia elatior; details: Preemergence, 0 to 100 scale
Outline: as §1

[6] = system: dallisgrass; assay: Test D dallisgrass; type: in vivo, Paspalum dilatatum; details: Preemergence, 0 to 100 scale
Outline: as §1

[7] = system: goosegrass; assay: Test D goosegrass; type: in vivo, Eleusine indica; details: Preemergence, 0 to 100 scale
Outline: as §1

[8] = system: guineagrass; assay: Test D guineagrass; type: in vivo, Panicum maximum; details: Preemergence, 0 to 100 scale
Outline: as §1

[9] = system: itchgrass; assay: Test D itchgrass; type: in vivo, Rottboellia exaltata; details: Preemergence, 0 to 100 scale
Outline: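 Scoring used a 0–100 visual injury scale, with 0 meaning no effect and 100 complete control, assessed 14–21 days after application alongside untreated pots. Preemergence treatments went onto sandy loam surfaces of separately potted seeds within a day of sowing.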

[10] = system: Johnson grass; assay: Test D Johnson grass; type: in vivo, Sorghum halepense; details: Preemergence, 0 to 100 scale
Outline: as §1

[11] = system: large crabgrass; assay: Test D large crabgrass; type: in vivo, Digitaria sanguinalis; details: Preemergence, 0 to 100 scale
Outline: as §1

[12] = system: pitted morningglory; assay: Test D pitted morningglory; type: in vivo, Ipomoea lacunosa; details: Preemergence, 0 to 100 scale
Outline: as §1

[13] = system: sandbur; assay: Test D sandbur; type: in vivo, Cenchrus echinatus; details: Preemergence, 0 to 100 scale
Outline: as §1

[14] = system: sourgrass; assay: Test D sourgrass; type: in vivo, Trichachne insularis; details: Preemergence, 0 to 100 scale
Text: Seeds, tubers, or plant parts of Alexandergrass (Brachiaria plantaginea), bermuda-grass (Cynodon dactylon), common pursiane (Portulaca oleracea), common ragweed (Ambrosia elatior), common groundsel (Senecio vulgaris), dallisgrass (Paspalum dilatatum), goosegrass (Eleusine indica), guineagrass (Panicum maximum), itchgrass (Rottboellia exaltata), Johnson grass (Sorghum halepense), large crabgrass (Digitaria sanguinalis), pitted morningglory (Ipomoea lacunosa), purple nutsedge (Cyperus rotundus), sandbur (Cenchrus echinatus), sourgrass (Trichachne insularis), Spanishneedles (Bidens bipinnata), surinam grass (Brachiaria decumbens) and tall mallow (Malva sylvestris) were planted into greenhouse pots of flats containing greenhouse planting medium. Plant species were grown in separate pots or individual compartments. Preemergence applications were made within one day of planting the seed or plant part.
Test chemicals were formulated in a non-phytotoxic solvent mixture which included a surfactant and applied preemergence to the surface of the pot containing seeds in a sandy loam soil. Untreated control pots and treated pots were placed in the greenhouse for growth and visually evaluated for injury 14 to 21 days after herbicide application. Plant response ratings, summarized in Table C, are based on a 0 to 100 scale where 0 is no injury and 100 is complete control. A dash (−) response means no test result.

[15] = system: Spanishneedles; assay: Test D Spanishneedles; type: in vivo, Bidens bipinnata; details: Preemergence, 0 to 100 scale
Outline: as §1

[16] = system: surinam grass; assay: Test D surinam grass; type: in vivo, Brachiaria decumbens; details: Preemergence, 0 to 100 scale
Outline: as §1

[17] = system: tall mallow; assay: Test D tall mallow; type: in vivo, Malva sylvestris; details: Preemergence, 0 to 100 scale
Outline: as §1

[18] = system: Green foxtail; assay: Test D green foxtail; type: in vivo; details: Preemergence, 0 to 100 scale
Outline: as §1

[19] = Rate 16 g/ha, 0 no injury, 100 complete control
[20] = Rate 32 g/ha, 0 no injury, 100 complete control
[21] = Rate 64 g/ha, 0 no injury, 100 complete control
[22] = Rate 125 g/ha, 0 no injury, 100 complete control

C=CCn1c(=O)on(C(=O)N(c2ccc(F)cc2)C(C)C)c1=O [Compound 146]
Plant response rating Cotton ([1]; Rate 140 g/ha): 40 | Plant response rating Cotton ([1]; Rate 280 g/ha): 65 | Plant response rating Cotton ([1]; Rate 560 g/ha): 65 | Plant response rating Cotton ([1]; Rate 1120 g/ha): 70 | Plant response rating, Alexandergrass [2, 19]: 65 | Plant response rating, Alexandergrass [2, 20]: 85 | Plant response rating, Alexandergrass [2, 21]: 95 | Plant response rating, Alexandergrass [2, 22]: 98 | Plant response rating, Alexandergrass ([2]; Rate 250 g/ha): 100 | Plant response rating, Alexandergrass ([2]; Rate 500 g/ha): 100 | Plant response rating, Bermudagrass [3, 19]: 65 | Plant response rating, Bermudagrass [3, 20]: 100 | Plant response rating, Bermudagrass [3, 21]: 95 | Plant response rating, Bermudagrass [3, 22]: 90 | Plant response rating, Bermudagrass ([3]; Rate 250 g/ha): 90 | Plant response rating, Bermudagrass ([3]; Rate 500 g/ha): 100 | Plant response rating, C. purslane [4, 19]: 0 | Plant response rating, C. purslane [4, 20]: 0 | Plant response rating, C. purslane [4, 21]: 0 | Plant response rating, C. purslane [4, 22]: 0 | Plant response rating, C. purslane ([4]; Rate 250 g/ha): 0 | Plant response rating, C. purslane ([4]; Rate 500 g/ha): 0 | Plant response rating, C. ragweed [5, 19]: 0 | Plant response rating, C. ragweed [5, 20]: 0 | Plant response rating, C. ragweed [5, 21]: 0 | Plant response rating, C. ragweed [5, 22]: 0 | Plant response rating, C. ragweed ([5]; Rate 250 g/ha): 60 | Plant response rating, C. ragweed ([5]; Rate 500 g/ha): 75 | Plant response rating, Dallisgrass [6, 19]: 80 | Plant response rating, Dallisgrass [6, 20]: 90 | Plant response rating, Dallisgrass [6, 21]: 98 | Plant response rating, Dallisgrass [6, 22]: 100 | Plant response rating, Dallisgrass ([6]; Rate 250 g/ha): 100 | Plant response rating, Dallisgrass ([6]; Rate 500 g/ha): 100 | Plant response rating, Goosegrass [7, 19]: 90 | Plant response rating, Goosegrass [7, 20]: 98 | Plant response rating, Goosegrass [7, 21]: 100 | Plant response rating, Goosegrass [7, 22]: 100 | Plant response rating, Goosegrass ([7]; Rate 250 g/ha): 100 | Plant response rating, Goosegrass ([7]; Rate 500 g/ha): 100 | Plant response rating, Guineagrass [8, 19]: 90 | Plant response rating, Guineagrass [8, 20]: 95 | Plant response rating, Guineagrass [8, 21]: 100 | Plant response rating, Guineagrass [8, 22]: 100 | Plant response rating, Guineagrass ([8]; Rate 250 g/ha): 100 | Plant response rating, Guineagrass ([8]; Rate 500 g/ha): 100 | Plant response rating, Itchgrass [9, 19]: 85 | Plant response rating, Itchgrass [9, 20]: 90 | Plant response rating, Itchgrass [9, 21]: 90 | Plant response rating, Itchgrass [9, 22]: 90 | Plant response rating, Itchgrass ([9]; Rate 250 g/ha): 100 | Plant response rating, Itchgrass ([9]; Rate 500 g/ha): 100 | Plant response rating Johnsongrass [10, 19]: 60 | Plant response rating Johnsongrass [10, 20]: 60 | Plant response rating Johnsongrass [10, 21]: 60 | Plant response rating Johnsongrass [10, 22]: 80 | Plant response rating Johnsongrass ([10]; Rate 250 g/ha): 90 | Plant response rating Johnsongrass ([10]; Rate 500 g/ha): 95 | Plant response rating Large crabgrass [11, 19]: 90 | Plant response rating Large crabgrass [11, 20]: 100 | Plant response rating Large crabgrass [11, 21]: 100 | Plant response rating Large crabgrass [11, 22]: 100 | Plant response rating Large crabgrass ([11]; Rate 250 g/ha): 100 | Plant response rating Large crabgrass ([11]; Rate 500 g/ha): 100 | Plant response rating, P. morninglory [12, 19]: 0 | Plant response rating, P. morninglory [12, 20]: 0 | Plant response rating, P. morninglory [12, 21]: 0 | Plant response rating, P. morninglory [12, 22]: 0 | Plant response rating, P. morninglory ([12]; Rate 250 g/ha): 0 | Plant response rating, P. morninglory ([12]; Rate 500 g/ha): 20 | Plant response rating, Sandbur [13, 19]: 0 | Plant response rating, Sandbur [13, 20]: 85 | Sandbur plant response rating [13, 21]: 100 | Sandbur plant response rating [13, 22]: 100 | Plant response rating, Sandbur ([13]; Rate 250 g/ha): 100 | Plant response rating, Sandbur ([13]; Rate 500 g/ha): 100 | Plant response rating, Sourgrass [14, 19]: 0 | Plant response rating, Sourgrass [14, 20]: 98 | Sourgrass plant response rating [14, 21]: 100 | Sourgrass plant response rating [14, 22]: 100 | Plant response rating, Sourgrass ([14]; Rate 250 g/ha): 100 | Plant response rating, Sourgrass ([14]; Rate 500 g/ha): 100 | Plant response rating, Spanishneedles [15, 19]: 0 | Plant response rating, Spanishneedles [15, 20]: 75 | Spanishneedles plant response rating [15, 21]: 85 | Spanishneedles plant response rating [15, 22]: 90 | Plant response rating, Spanishneedles ([15]; Rate 250 g/ha): 100 | Plant response rating, Spanishneedles ([15]; Rate 500 g/ha): 100 | Plant response rating Surinam grass [16, 19]: 40 | Plant response rating Surinam grass [16, 20]: 60 | Surinam grass plant response rating [16, 21]: 60 | Surinam grass plant response rating [16, 22]: 100 | Plant response rating Surinam grass ([16]; Rate 250 g/ha): 100 | Plant response rating Surinam grass ([16]; Rate 500 g/ha): 100 | Plant response rating, Tall Mallow [17, 19]: 40 | Plant response rating, Tall Mallow [17, 20]: 40 | Tall Mallow plant response rating [17, 21]: 50 | Tall Mallow plant response rating [17, 22]: 80 | Plant response rating, Tall Mallow ([17]; Rate 250 g/ha): 90 | Plant response rating, Tall Mallow ([17]; Rate 500 g/ha): 100 | Green foxtail plant response rating [18, 21]: 100 | Plant response rating, Green foxtail [18, 21]: 100 | Green foxtail plant response rating [18, 22]: 100 | Plant response rating, Green foxtail [18, 22]: 100 | Plant response rating, Green foxtail ([18]; Rate 250 g/ha): 100 | Plant response rating, Green foxtail ([18]; Rate 500 g/ha): 100

CCc1ccccc1-n1c(=O)on(C(=O)N(c2ccc(F)cc2)C(C)C)c1=O [Compound 34]
Plant response rating, Alexandergrass [2, 20]: 0 | Plant response rating, Alexandergrass [2, 21]: 20 | Plant response rating, Alexandergrass [2, 22]: 30 | Plant response rating, Alexandergrass ([2]; Rate 250 g/ha): 60 | Plant response rating, Bermudagrass [3, 20]: 85 | Plant response rating, Bermudagrass [3, 21]: 98 | Plant response rating, Bermudagrass [3, 22]: 100 | Plant response rating, Bermudagrass ([3]; Rate 250 g/ha): 100 | Plant response rating, C. purslane [4, 20]: 0 | Plant response rating, C. purslane [4, 22]: 0 | Plant response rating, C. purslane ([4]; Rate 250 g/ha): 0 | Plant response rating, C. ragweed [5, 20]: 0 | Plant response rating, C. ragweed [5, 21]: 0 | Plant response rating, C. ragweed [5, 22]: 0 | Plant response rating, C. ragweed ([5]; Rate 250 g/ha): 0 | Plant response rating, Dallisgrass [6, 20]: 0 | Plant response rating, Dallisgrass [6, 21]: 80 | Plant response rating, Dallisgrass [6, 22]: 98 | Plant response rating, Dallisgrass ([6]; Rate 250 g/ha): 100 | Plant response rating, Goosegrass [7, 20]: 0 | Plant response rating, Goosegrass [7, 21]: 75 | Plant response rating, Goosegrass [7, 22]: 85 | Plant response rating, Goosegrass ([7]; Rate 250 g/ha): 98 | Plant response rating, Guineagrass [8, 20]: 30 | Plant response rating, Guineagrass [8, 21]: 80 | Plant response rating, Guineagrass [8, 22]: 85 | Plant response rating, Guineagrass ([8]; Rate 250 g/ha): 98 | Plant response rating, Itchgrass [9, 20]: 0 | Plant response rating, Itchgrass [9, 21]: 0 | Plant response rating, Itchgrass [9, 22]: 0 | Plant response rating, Itchgrass ([9]; Rate 250 g/ha): 20 | Plant response rating Johnsongrass [10, 20]: 0 | Plant response rating Johnsongrass [10, 21]: 0 | Plant response rating Johnsongrass [10, 22]: 20 | Plant response rating Johnsongrass ([10]; Rate 250 g/ha): 30 | Plant response rating Large crabgrass [11, 20]: 85 | Plant response rating Large crabgrass [11, 21]: 98 | Plant response rating Large crabgrass [11, 22]: 100 | Plant response rating Large crabgrass ([11]; Rate 250 g/ha): 100 | Plant response rating, P. morninglory [12, 20]: 0 | Plant response rating, P. morninglory [12, 21]: 0 | Plant response rating, P. morninglory [12, 22]: 0 | Plant response rating, P. morninglory ([12]; Rate 250 g/ha): 0 | Plant response rating, Sandbur [13, 20]: 0 | Sandbur plant response rating [13, 21]: 0 | Sandbur plant response rating [13, 22]: 30 | Plant response rating, Sandbur ([13]; Rate 250 g/ha): 40 | Plant response rating, Sourgrass [14, 20]: 98 | Sourgrass plant response rating [14, 21]: 100 | Sourgrass plant response rating [14, 22]: 100 | Plant response rating, Sourgrass ([14]; Rate 250 g/ha): 100 | Plant response rating, Spanishneedles [15, 20]: 0 | Spanishneedles plant response rating [15, 21]: 0 | Spanishneedles plant response rating [15, 22]: 0 | Plant response rating Surinam grass [16, 20]: 0 | Surinam grass plant response rating [16, 21]: 0 | Surinam grass plant response rating [16, 22]: 0 | Plant response rating Surinam grass ([16]; Rate 250 g/ha): 20 | Plant response rating, Tall Mallow [17, 20]: 0 | Tall Mallow plant response rating [17, 21]: 0 | Tall Mallow plant response rating [17, 22]: 0 | Plant response rating, Tall Mallow ([17]; Rate 250 g/ha): 0 | Plant response rating, Green foxtail [18, 20]: 0

Reference: patent US6737383B1, “Herbicidal oxadiazolidines” (priority 1999, dated 2004)
